Numbers after ± are expanded uncertainties.
Assay: molar heat capacity at constant pressure
Settings: Liquid, Flow calorimetry

SMILES | molar heat capacity at constant pressure (293.15 K, 100 kPa) [J/K/mol] | molar heat capacity at constant pressure (293.15 K, 10000 kPa) [J/K/mol] | molar heat capacity at constant pressure (293.15 K, 20000 kPa) [J/K/mol] | molar heat capacity at constant pressure (293.15 K, 30000 kPa) [J/K/mol] | molar heat capacity at constant pressure (313.15 K, 100 kPa) [J/K/mol] | molar heat capacity at constant pressure (313.15 K, 10000 kPa) [J/K/mol] | molar heat capacity at constant pressure (313.15 K, 20000 kPa) [J/K/mol] | molar heat capacity at constant pressure (313.15 K, 30000 kPa) [J/K/mol] | molar heat capacity at constant pressure (333.15 K, 100 kPa) [J/K/mol] | molar heat capacity at constant pressure (333.15 K, 10000 kPa) [J/K/mol] | molar heat capacity at constant pressure (333.15 K, 20000 kPa) [J/K/mol] | molar heat capacity at constant pressure (333.15 K, 30000 kPa) [J/K/mol] | molar heat capacity at constant pressure (353.15 K, 100 kPa) [J/K/mol] | molar heat capacity at constant pressure (353.15 K, 10000 kPa) [J/K/mol] | molar heat capacity at constant pressure (353.15 K, 20000 kPa) [J/K/mol] | molar heat capacity at constant pressure (353.15 K, 30000 kPa) [J/K/mol]
CCCCC(CC)COC(=O)c1ccccc1C(=O)OCC(CC)CCCC (stereo not drawn) [bis(2-ethylhexyl) 1,2-benzenedicarboxylate] | 703 ± 7.1 | 701.5 ± 7.1 | 699.9 ± 7.1 | 699.6 ± 7.1 | 726.9 ± 7.3 | 724.9 ± 7.3 | 723 ± 7.3 | 722 ± 7.3 | 751.3 ± 7.6 | 750 ± 7.6 | 747.5 ± 7.6 | 746 ± 7.5 | 774.5 ± 7.8 | 770.5 ± 7.8 | 767.9 ± 7.8 | 763.4 ± 7.7
CC(C)CCCC(C)CCCC(C)CCCCC(C)CCCC(C)CCCC(C)C (stereo not drawn) [2,6,10,15,19,23-hexamethyltetracosane] | 879 ± 8.9 | 873.5 ± 8.8 | 868.5 ± 8.8 | 865.5 ± 8.7 | 904.4 ± 9.1 | 898.9 ± 9.1 | 896.4 ± 9.1 | 893.4 ± 9 | 943.3 ± 9.5 | 940.8 ± 9.5 | 936.1 ± 9.5 | 929.3 ± 9.4 | 978.8 ± 9.9 | 973.7 ± 9.8 | 963.2 ± 9.7 | 959.8 ± 9.7
CCCCC(CC)COC(=O)CCCCCCCCC(=O)OCC(CC)CCCC (stereo not drawn) [bis(2-ethylhexyl) decanedioate] | 810.3 ± 8.2 | 808.5 ± 8.2 | 805.6 ± 8.1 | 803 ± 8.1 | 846.5 ± 8.6 | 843.5 ± 8.5 | 840.1 ± 8.5 | 838.4 ± 8.5 | 878.1 ± 8.9 | 875.5 ± 8.8 | 873.4 ± 8.8 | 871.7 ± 8.8 | 910.9 ± 9.2 | 909.7 ± 9.2 | 907.1 ± 9.2 | 906.3 ± 9.2

From the NIST ThermoML archive (doi:10.1016/j.jct.2012.01.011)
